The source of these data is patent publication US5840714A, “Inclusion complexes of racemic ibuproxam and of optically active ibuproxam with cyclodextrin derivatives, pharmaceutical preparations containing said inclusion complexes and methods for using same” (priority 1993, dated 1998).

For series [1] the following is noted: in vivo; cited from earlier work.
For series [2] the following is noted: irrespective of application route; cited from earlier work.
The conditions of series [3]: cited from earlier work.
The conditions of series [4]: cited from earlier work. The source holds these as a separate data set.
A further series concerns mice of Han-NMRI strain. Briefly: in vivo. To be noted: for comparative toxicity (in words): peroral, mice and rats. On the procedure: (§1) In the test mice of Han-NMRI strain of both sexes, weight 19 to 24 g, and female rats of Han-WISTAR strain, weight 220 to 250 g, were used. The active substance was suspended in arachis oil and applied perorally. The volume of the applied suspension was 0.2 ml/20 g body weight in mice and 0.2 ml/200 g body weight in rats. Before the test the animals were fasted for 24 hours and after application, water and food were available ad libitum.

A further series can be described thus: in vivo. The settings on record: po. The procedure: as §1
A further series relates to gastric mucous membrane. Briefly: Effect on gastric mucous membrane (irritation). Type of series: in vivo, rats. On the procedure:
[…] After 4 hours its effect on irritation of gastric mucous membrane was measured in a way that the rate of bleeding in stomach and frequency of ulcers was determined.

The test system of series [5] is convulsions caused by phenylbenzoquinone. As to the kind of experiment: Alleviation of pain (phenylbenzoquinone-induced convulsions). Type of series: in vivo, female mice. The settings on record: Mus musculus, po, read-out: ED50 (50% pain protection); 95% confidence limit; peroral, 30 minutes before intraperitoneal phenylbenzoquinone.
Procedure: The effect of alleviating pain was tested with the number of convulsions caused by phenylbenzoquinone. Female mice, weight 15 to 22 g, were fasted before the test for 24 hours and after the application water and food were ad libitum. 30 minutes after peroral introduction of the suspension of active substance in 10% gum arabic solution, individual mice were intraperitoneally administered 0.25 ml of 0.02% phenylbenzoquinone solution. Only the vehicle was applied to a control group of animals. The number of phenylbenzoquinone-induced convulsions was pursued 5 to 20 minutes after the application thereof.
ED50 calculated dosis of the active substance in mg per 1 kg of the
animal, which dosis caused a 50% pain protection
Series [6] relates to oedema caused by carrageenin. Briefly: Antiinflammatory action in vivo (carrageenin oedema). Also noted: species or system rats. The procedure:
Antiinflammatory action was measured in vivo by the inhibition of oedema caused by carrageenin.
Rats, which were fasted overnight, were given 100 mg/kg of the test substance 1 hour before the injection of 0.1 ml 1% carrageenin suspension.
On the technique in general: Carrageenan injected into the paw causes an acute inflammation.

The mark [7] stands for this setting: mouse, in vivo, 2000 mg/kg, % of deaths after 15 days, female mice, 2000 mg/kg peroral.
The mark [8] stands for this setting: mouse, in vivo, 2000 mg/kg, % of deaths after 15 days, male mice, 2000 mg/kg peroral.
Where [9] appears, read: mouse, in vivo, 2000 mg/kg, % of deaths in 24 h, female mice, 2000 mg/kg peroral.
The mark [10] stands for this setting: mouse, in vivo, 2000 mg/kg, % of deaths in 24 h, male mice, 2000 mg/kg peroral.

As to `CC(C)Cc1ccc(C(C)C(=O)NO)cc1` (racemic) [racemic ibuproxam, 2-(4-isobutylphenyl)-propiohydroxamic acid], in series [1], the “analgetic, antipyretic and antiinflammatory action (in words)” value was “same analgetic, antipyretic and antiinflammatory action of both substances”; the “bioavailability in comparison with ibuprofen (in words)” value was “better bioavailability of ibuproxam in comparison with ibuprofen”; the “toxicity for the mucous membrane of the alimentary tract (in words)” value is listed as “less toxic for the mucous membrane of the alimentary tract”. Further, in series [2], the “metabolic conversion into ibuprofen (in words)” value was “rapid and almost complete metabolic conversion into ibuprofen”. In addition, the “LD50 comparison at parenteral application” value in series [3] was “the same for both substances”.
Consider `CC(C)Cc1ccc([C@@H](C)C(=O)O)cc1` [R-(-)-enantiomer], for which the “conversion to S-(+)-enantiomer in humans” value in series [4] (humans) was “only one third thereof, is converted to S-(+)-enantiomer”.
In the case of `CC(C)Cc1ccc([C@H](C)C(=O)O)cc1` [S-(+)-ibuprofen], in the series on mice of Han-NMRI strain, the “comparative toxicity (in words)” value is listed as “acute toxicity of S-(+)-ibuprofen in all test animals is greater than acute toxicity of S-(+)-ibuproxam”. Besides, the mortality (as a rule, the percentage killed) at 360 h in the series “in vivo” (mouse, in vivo, 1000 mg/kg, % of deaths after 15 days, female mice, 1000 mg/kg peroral) was found to be 10%; in the series “in vivo” (setting [7]), 10%; in “in vivo” (setting [8]), 30%; in “in vivo” (rat, 1000 mg/kg) it was 83.3%. Besides, the mortality at 24 h was found to be 10% in the series “in vivo” (mouse, in vivo, 1000 mg/kg, % of deaths in 24 h, female mice, 1000 mg/kg peroral); 10% in the series “in vivo” (setting [9]); 0% in the series “in vivo” (setting [10]); 0% in the series “in vivo” (rat, 1000 mg/kg). The mortality at 48 h in the series “in vivo” (mouse, in vivo, 2000 mg/kg, animals died in 48 hours, male mice, 2000 mg/kg peroral) is 30%. Further, the median lethal dose (LD50) – broadly, the dose expected to kill half of the subjects tested – in “in vivo” (rat) is below 1000 mg/kg. The same compound displayed a mortality at 144 h in “in vivo” (rat, 1000 mg/kg) of 83.3%. Also, in the series with gastric mucous membrane (rat, in vivo, 30 mg/kg), the “irritation of gastric mucous membrane” value came out at 12. In addition, the “pharmacological activity (in words)” value in series [4] (in vivo) was “pharmacologically active”.
For the compound `CC(C)Cc1ccc([C@H](C)C(=O)NO)cc1` [S-(+)-ibuproxam, S-(+)-2-(4-isobutylphenyl)-propiohydroxamic acid], the “animals died (in words)” value with mice of Han-NMRI strain (female mice, 1000 mg/kg or 2000 mg/kg peroral, 15 days) is “no animal died”; with mice of Han-NMRI strain (male mice, 2000 mg/kg peroral), “no animal died”. In addition, the “animals died in 15 days (in words)” value with mice of Han-NMRI strain (mice of both sexes, 2000 mg/kg peroral) was “no animal died in 15 days”. Moreover, the “comparative toxicity (in words)” value in the series on mice of Han-NMRI strain is “less toxic than S-(+)-ibuprofen”. Further, the mortality at 360 h stood at 0% in the series “in vivo” (setting [7]); 0% in “in vivo” (setting [8]); 50% in the series “in vivo” (rat, 1000 mg/kg); 50% in “in vivo” (rat, 2000 mg/kg). Also, the mortality at 24 h in the series “in vivo” (setting [9]) stood at 0%; in the series “in vivo” (setting [10]), 0%; in the series “in vivo” (rat, 1000 mg/kg), 0%. Besides, in the series on gastric mucous membrane (dose 30 mg/kg peroral, rate of bleeding and frequency of ulcers after 4 hours), the “irritation of gastric mucous membrane” value is 0. In addition, the “irritating effect on gastric mucous membrane (in words)” value with gastric mucous membrane (rat, in vivo) is “did not exhibit an irritating effect on gastric mucous membrane”. In [5], the median effective dose (ED50) (as a rule, the dose that gives a 50% effect, or the effect in half of the subjects) came to 73 mg/kg. For the same compound, the antiinflammatory action in series [6] (100 mg/kg peroral, 1 hour before carrageenin, oedema inhibition 3 hours after carrageenin) is 37. In series [6] (rat, in vivo), the “comparative antiinflammatory action (in words)” value is “greater antiinflammatory action than free racemic ibuproxam”.
On to `CC(C)Cc1ccc(C(C)C(=O)O)cc1` (centres unmarked) [ibuprofen, 2-(4-isobutylphenyl)-propionic acid], for which the “analgetic, antipyretic and antiinflammatory action (in words)” value in series [1] was “same analgetic, antipyretic and antiinflammatory action of both substances”. Besides, in series [3], the “LD50 comparison at parenteral application” value was “the same for both substances”.
